We go through 23 molecules from patent US9187465B2, “Oxazole tyrosine kinase inhibitors” (Sareum Limited, priority 2007, dated 2015).

What all share (type): biochemical
One test addresses T1, human FLT3 (Homo sapiens, UniProt P36888).
T1 construct: a construct expressing the human FLT3 (564-993) with an amino terminal GST tag; host or cells: Sf9 insect cells (baculovirus)
T1 sequence (P36888 564-993): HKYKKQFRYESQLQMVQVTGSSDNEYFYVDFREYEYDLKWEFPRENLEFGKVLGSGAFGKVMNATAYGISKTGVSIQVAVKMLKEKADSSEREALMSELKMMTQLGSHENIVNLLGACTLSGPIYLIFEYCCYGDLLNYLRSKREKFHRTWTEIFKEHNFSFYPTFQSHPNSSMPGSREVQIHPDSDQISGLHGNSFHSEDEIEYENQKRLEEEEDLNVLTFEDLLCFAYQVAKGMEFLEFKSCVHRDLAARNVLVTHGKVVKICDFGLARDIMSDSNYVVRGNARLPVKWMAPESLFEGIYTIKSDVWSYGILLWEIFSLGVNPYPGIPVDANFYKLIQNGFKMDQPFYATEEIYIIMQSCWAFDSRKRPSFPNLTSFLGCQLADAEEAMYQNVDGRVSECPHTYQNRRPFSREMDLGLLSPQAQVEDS
Kind of test: FLT3 kinase assay (DELFIA enzyme inhibition). In short, it runs like this:
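GST-tagged human FLT3 (564-993), expressed in sf9 cells, phosphorylated a biotinylated Gastrin Precursor (Tyr 87)-derived peptide for 30 min at room temperature before EDTA stop. The captured peptide was detected by Eu-labelled anti-phosphotyrosine DELFIA time-resolved fluorescence. IC50 was derived from % inhibition curves.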

A further test has as its target T2, human FLT4 (Homo sapiens, UniProt P35916).
T2 construct: a construct expressing the human FLT4 (789-1207) with an amino terminal GST tag; host or cells: Sf9 insect cells (baculovirus)
In words: FLT4 kinase assay (DELFIA enzyme inhibition). As to conditions: read-out: FLT4 IC50. In short, it runs like this:
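GST-tagged human FLT4 (789-1207) from Sf9 cells phosphorylates a biotinylated MET (Tyr1253)-derived peptide for 30 min at room temperature, stopped with EDTA. Phosphopeptide is captured on Neutravidin and detected with Eu-labelled anti-phosphotyrosine antibody by time-resolved fluorescence; IC50 from % inhibition curves.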

Another test addresses T3, human Aurora A (Homo sapiens, UniProt O14965).
T3 construct: Histidine tag (N); host or cells: Sf9 insect cells (baculovirus)
T3 sequence (O14965 1-403): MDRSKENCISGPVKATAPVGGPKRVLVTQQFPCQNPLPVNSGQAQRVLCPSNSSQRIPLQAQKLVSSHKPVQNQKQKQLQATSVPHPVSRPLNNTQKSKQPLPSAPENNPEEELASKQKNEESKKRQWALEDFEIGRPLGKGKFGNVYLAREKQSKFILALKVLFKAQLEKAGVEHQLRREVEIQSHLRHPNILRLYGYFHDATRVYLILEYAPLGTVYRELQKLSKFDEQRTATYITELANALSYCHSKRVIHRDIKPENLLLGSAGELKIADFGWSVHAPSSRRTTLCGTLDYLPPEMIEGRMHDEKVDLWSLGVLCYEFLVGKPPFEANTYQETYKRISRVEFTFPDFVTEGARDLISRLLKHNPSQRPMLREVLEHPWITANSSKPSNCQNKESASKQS
In words: Aurora A kinase assay (DELFIA enzyme inhibition). Conditions: read-out: Aurora A IC50. An outline of the steps:
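DELFIA read-out (time-resolved Eu fluorescence, 620 nm emission) after Neutravidin capture of biotinylated peptide substrate and antibody detection. Reaction: Ni-agarose-purified Aurora A, 30 min at room temperature, stopped with 100 mM EDTA.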

T2 sequence (P35916 789-1207): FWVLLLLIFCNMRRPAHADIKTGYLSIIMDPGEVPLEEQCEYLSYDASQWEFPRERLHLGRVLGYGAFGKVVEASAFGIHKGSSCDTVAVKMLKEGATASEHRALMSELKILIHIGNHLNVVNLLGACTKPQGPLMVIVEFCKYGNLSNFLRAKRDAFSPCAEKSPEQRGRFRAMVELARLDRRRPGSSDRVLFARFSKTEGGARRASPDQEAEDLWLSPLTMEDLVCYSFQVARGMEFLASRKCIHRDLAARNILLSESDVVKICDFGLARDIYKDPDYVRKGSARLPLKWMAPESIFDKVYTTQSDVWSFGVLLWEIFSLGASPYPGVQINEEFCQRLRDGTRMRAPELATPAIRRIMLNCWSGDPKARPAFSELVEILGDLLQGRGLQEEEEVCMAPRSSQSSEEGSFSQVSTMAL

By IC50 is commonly meant the point on the concentration scale where inhibition reaches its midpoint. Take `NC(=O)c1nc(-c2c(F)cccc2F)oc1Nc1ccc(-n2cnnn2)cc1` [Example Q-31, 5-(4-(1H-tetrazol-1-yl)phenylamino)-2-(2,6-difluorophenyl)oxazole-4-carboxamide]: the half-inhibitory concentration (IC50) on human FLT3, at human FLT4 and on human Aurora A was below 10 µM each time.
For `NC(=O)c1nc(-c2c(F)cccc2F)oc1Nc1ccc(C2=NNC(=O)C2)cc1` [Example Q-32, 2-(2,6-difluorophenyl)-5-(4-(5-oxo-4,5-dihydro-1H-pyrazol-3-yl)phenylamino)oxazole-4-carboxamide], the half-inhibitory concentration (IC50) against human FLT3, on human FLT4 and at human Aurora A was below 10 µM in each case.
As for `NC(=O)c1nc(-c2c(F)cccc2F)oc1Nc1ccc(-c2cc(CO)on2)cc1` [Example Q-33, 2-(2,6-difluorophenyl)-5-(4-(5-(hydroxymethyl)isoxazol-3-yl)phenylamino)oxazole-4-carboxamide], the IC50 against human FLT3 was below 100 µM; on human FLT4, below 10 µM; on human Aurora A, below 10 µM.
As for `NC(=O)c1nc(-c2c(F)cccc2F)oc1Nc1ccc(-c2nnn[nH]2)cc1` [Example Q-34, 5-(4-(1H-tetrazol-5-yl)phenylamino)-2-(2,6-difluorophenyl)oxazole-4-carboxamide], the IC50 against human FLT3, at human FLT4 and at human Aurora A was below 10 µM each time.
Take `NC(=O)c1nc(-c2c(Cl)cccc2Cl)oc1Nc1ccc(N2CCNCC2)cc1` [Example Q-35, 2-(2,6-dichlorophenyl)-5-(4-(piperazin-1-yl)phenylamino)oxazole-4-carboxamide]: the 50% inhibitory concentration (IC50) at human FLT3, on human FLT4 and at human Aurora A was below 10 µM in each case.
Take `Cc1cccc(C)c1-c1nc(C(N)=O)c(Nc2ccc(N3CCNCC3)cc2)o1` [Example Q-37, 2-(2,6-dimethylphenyl)-5-(4-(piperazin-1-yl)phenylamino)oxazole-4-carboxamide]: the IC50 on human FLT3, on human FLT4 and at human Aurora A was below 10 µM each time.
`NC(=O)c1nc(-c2c(F)cccc2F)oc1Nc1ccc(N2CCNCC2)nc1` [Example Q-47, 2-(2,6-difluorophenyl)-5-(6-(piperazin-1-yl)pyridin-3-ylamino)oxazole-4-carboxamide]: the half-maximal inhibitory concentration (IC50) on human FLT3, at human FLT4 and at human Aurora A was below 10 µM throughout.
With `NC(=O)c1nc(-c2c(F)cccc2F)oc1Nc1ccc(CN2CCCCC2)cc1` [Example Q-56, 2-(2,6-difluorophenyl)-5-(4-(piperidin-1-ylmethyl)phenylamino)oxazole-4-carboxamide], the IC50 against human FLT3, on human FLT4 and at human Aurora A was below 10 µM each time.
As to `CS(=O)(=O)c1ccc(Nc2oc(-c3cccc4[nH]ncc34)nc2C(N)=O)cc1` [Example Q-58, 2-(1H-indazol-4-yl)-5-(4-(methylsulfonyl)phenylamino)oxazole-4-carboxamide], the IC50 against human FLT3, on human FLT4 and on human Aurora A was below 10 µM each time.
For `NC(=O)c1nc(-c2cccc3[nH]ncc23)oc1Nc1ccc(N2CCN(C(=O)C(F)(F)F)CC2)cc1` [Example Q-60, 2-(1H-indazol-4-yl)-5-(4-(4-(2,2,2-trifluoroacetyl)piperazin-1-yl)phenylamino)oxazole-4-carboxamide], the IC50 against human FLT3, on human FLT4 and on human Aurora A was below 10 µM throughout.
Consider `COc1ccc(-c2oc(Nc3ccccc3)nc2C(N)=O)cc1` [Example R-1, 5-(4-methoxyphenyl)-2-(phenylamino)oxazole-4-carboxamide], for which the IC50 against human FLT3, at human FLT4 and at human Aurora A was below 10 µM each time.
For the molecule `COc1ccc(-c2oc(Nc3ccccc3OC)nc2C(N)=O)cc1` [Example R-2, 5-(4-methoxyphenyl)-2-(2-methoxyphenylamino)oxazole-4-carboxamide], the half-maximal inhibitory concentration (IC50) on human FLT3, at human FLT4 and at human Aurora A was below 10 µM in each case.
As to `COc1ccc(-c2oc(Nc3ccccc3C)nc2C(N)=O)cc1` [Example R-5, 2-(o-toluidino)-5-(4-methoxyphenyl)oxazole-4-carboxamide], the IC50 on human FLT3, at human FLT4 and at human Aurora A was below 10 µM each time.
As to `COc1ccc(-c2oc(Nc3ccccc3F)nc2C(N)=O)cc1` [Example R-8, 2-(2-fluorophenylamino)-5-(4-methoxyphenyl)oxazole-4-carboxamide], the IC50 against human FLT3, on human FLT4 and on human Aurora A was below 10 µM throughout.
With `COc1cccc(Nc2nc(C(N)=O)c(-c3ccc(N4CCNCC4)cc3)o2)c1` [Example R-12, 2-(3-methoxyphenylamino)-5-(4-(piperazin-1-yl)phenyl)oxazole-4-carboxamide], the 50% inhibitory concentration (IC50) against human FLT3, at human FLT4 and on human Aurora A was below 10 µM each time.
As to `NC(=O)c1nc(Nc2cccnc2)oc1-c1ccc(N2CCNCC2)cc1` [Example R-14, 5-(4-(piperazin-1-yl)phenyl)-2-(pyridin-3-ylamino)oxazole-4-carboxamide], the concentration for half-maximal inhibition (IC50) at human FLT3, on human FLT4 and at human Aurora A was below 10 µM throughout.
For the molecule `NC(=O)c1nc(Nc2ccc3[nH]ncc3c2)oc1-c1ccc(N2CCNCC2)cc1` [Example R-15, 2-(1H-indazol-5-ylamino)-5-(4-(piperazin-1-yl)phenyl)oxazole-4-carboxamide], the IC50 on human FLT3, at human FLT4 and at human Aurora A was below 10 µM throughout.
On to `NC(=O)c1nc(Nc2ccc3cn[nH]c3c2)oc1-c1ccc(N2CCNCC2)cc1` [Example R-16, 2-(1H-indazol-6-ylamino)-5-(4-(piperazin-1-yl)phenyl)oxazole-4-carboxamide], for which the IC50 against human FLT3, on human FLT4 and at human Aurora A was below 10 µM throughout.
Turning to `NC(=O)c1nc(Nc2cnn(Cc3ccccc3)c2)oc1-c1ccc(N2CCNCC2)cc1` [Example R-17, 2-(1-benzyl-1H-pyrazol-4-ylamino)-5-(4-(piperazin-1-yl)phenyl)oxazole-4-carboxamide], the IC50 at human FLT3, at human FLT4 and at human Aurora A was below 10 µM each time.
As for `CN1CCN(CCOc2ccc(-c3oc(-c4c(F)cccc4F)nc3C(N)=O)cc2)CC1` [Example S-1, 2-(2,6-difluorophenyl)-5-(4-(2-(4-methylpiperazin-1-yl)ethoxy)phenyl)oxazole-4-carboxamide], the IC50 against human FLT3 was below 100 µM; on human FLT4 it was below 10 µM; at human Aurora A, below 10 µM.
`NC(=O)c1nc(-c2c(F)cccc2N2CCC(O)CC2)oc1-c1ccc(OCCN2CCC(O)CC2)cc1` [Example S-3, 2-(2-fluoro-6-(4-hydroxypiperidin-1-yl)phenyl)-5-(4-(2-(4-hydroxypiperidin-1-yl)ethoxy)phenyl)oxazole-4-carboxamide]: the IC50 at human FLT3, on human FLT4 and on human Aurora A was below 100 µM throughout.
In the case of `NC(=O)c1nc(-c2c(F)cccc2F)oc1-c1ccc(OCCN2CCC(O)CC2)cc1` [Example S-4, 2-(2,6-difluorophenyl)-5-(4-(2-(4-hydroxypiperidin-1-yl)ethoxy)phenyl)oxazole-4-carboxamide], the IC50 against human FLT3 is below 100 µM; on human FLT4 it was below 10 µM; at human Aurora A, below 10 µM.
As for `NC(=O)c1nc(-c2c(F)cccc2F)oc1-c1ccc(OCCN2CCC[C@H]2CO)cc1` [Example S-5, (S)-2-(2,6-difluorophenyl)-5-(4-(2-(2-(hydroxymethyl)pyrrolidin-1-yl)ethoxy)phenyl)oxazole-4-carboxamide], the IC50 was below 100 µM against human FLT3, below 10 µM on human FLT4 and below 10 µM on human Aurora A.
